Here are results for 30 molecules from US8853424B2 (Japan Science and Technology Agency, priority 2008, dated 2014).

In one assay the test system is transglutaminase (TGase). The assay can be described thus: Measurement of TG (TGase inhibitory activity, monodansyl cadaverine / N,N-dimethylcasein fluorescence, FDSS 3000). Format: biochemical. How it is done:
For example, the method described in the Example can be performed.
The compound of the present invention (10 mM, 1 μL) was taken in a 96-well plate (Nunc, 96 Well Black Plate with Clear Bottom), an enzyme reaction solution (100 mM HEPES-NaOH, pH 7.5, 1 mM CaCl2, 20 μM monodansyl cadaverine, 0.05 mg/mL N,N-dimethylcasein, 5 μg/mL TGase) (0.1 ml) was added and the mixture was sufficiently mixed without making foams. The mixture was set on a fluorescence drug screening system FDSS 3000 (Hamamatsu Photonics K.K.), and changes in the fluorescence wavelength per unit time at 340 nm were measured, based on which the TGase inhibitory activity of the compound of the present invention was calculated. As a control, change in the fluorescence when 1 μL of DMSO (dimethyl sulfoxide) was added instead of the compound of the present invention was taken as 100, and TG50 was when the activity decreased to half due to the compound of the present invention.

For assay [1], the system named is Truncated N-terminal huntington 150 Q-EGFP-Neuron 2a cells. The assay can be described thus: Measurement of x-Fold (polyglutamine aggregation inhibitory activity). Format: cell-based. How it is done:
In the present invention, the polyglutamine aggregation inhibitory activity (x-Fold) can be measured, for example, by the method described in the Example.
The number of the aggregated cells, and the total number of cells were counted by Array Scan V T1 (manufactured by Cellomics, Pittuburg, USA), and the ratio of the aggregated cells to the total number of cells was determined (x-Fold). […]

Where [2] appears, read: TGase activity with compound (10 mM, 1 μL in 0.1 ml enzyme reaction solution), DMSO control taken as 100.
The mark [3] stands for this setting: TGase inhibitory activity value, Table 1.
The mark [4] stands for this setting: polyglutamine aggregation inhibitory activity, Table 1.
[5] abbreviates: ratio of aggregated cells to total number of cells, compound 20 μM, 20 hr, almost 1 without compound, smaller = stronger inhibition.

On to “4,4′-(phenyl piperazino-O,O-ethoxyboryl)benzylether [Example 197]”, for which the “TGase activity remaining (% of DMSO control = 100)” value in the assay with transglutaminase (TGase) (setting [2]) and in the assay with transglutaminase (TGase) (setting [3]) was 99 in each case. Besides, the x-Fold in assay [1] (setting [4]) and in assay [1] (setting [5]) was 1.02 in each case.

As for `NCCSB(c1ccc(Cl)cc1F)c1ccc(Cl)cc1F` [Example 1, 2-aminoethylthio bis(4-chloro-2-fluorophenyl)borane], the “TGase activity remaining (% of DMSO control = 100)” value with transglutaminase (TGase) (setting [2]) and in the assay with transglutaminase (TGase) (setting [3]) was 28 each time. In addition, the x-Fold in assay [1] (setting [4]) and in assay [1] (setting [5]) was 0.95 throughout.

Regarding `CN(C)CCOB(c1ccc(C(F)(F)F)cc1)c1ccc(C(F)(F)F)cc1` [Example 69, 2-dimethylaminoethyl bis(4-trifluoromethylphenyl)borinate], the “TGase activity remaining (% of DMSO control = 100)” value with transglutaminase (TGase) (setting [2]) is given as 76; with transglutaminase (TGase) (TGase inhibitory activity value, Table 1, listed as 5034), 76. For the same molecule, the x-Fold stood at 1.02 in assay [1] (polyglutamine aggregation inhibitory activity, Table 1, listed as 5034) and 1.02 in assay [1] (setting [5]).

Turning to `OB(c1ccc(C(F)(F)F)cc1)c1ccc(C(F)(F)F)cc1` [Example 75, bis(4-trifluoromethylphenyl)borinic acid], the “TGase activity remaining (% of DMSO control = 100)” value was 97 in the assay with transglutaminase (TGase) (setting [2]) and 97 in the assay with transglutaminase (TGase) (TGase inhibitory activity value, Table 1, listed as 6001). The x-Fold in assay [1] (polyglutamine aggregation inhibitory activity, Table 1, listed as 6001) amounted to 0.88; in assay [1] (setting [5]), 0.88.

For `OB(c1ccc(F)c(Cl)c1)c1ccc(F)c(Cl)c1` [Example 76, bis(3-chloro-4-fluorophenyl)borinic acid], the “TGase activity remaining (% of DMSO control = 100)” value in the assay on transglutaminase (TGase) (setting [2]) and in the assay on transglutaminase (TGase) (setting [3]) was 117 each time. The x-Fold in assay [1] (setting [4]) and in assay [1] (setting [5]) was 0.78 each time.

For `NCCOB(c1ccc(F)c(Cl)c1)c1ccc(F)c(Cl)c1` [Example 77, 2-aminoethyl-bis(3-chloro-4-fluorophenyl)borinate], the “TGase activity remaining (% of DMSO control = 100)” value was 98 in the assay with transglutaminase (TGase) (setting [2]) and 98 with transglutaminase (TGase) (TGase inhibitory activity value, Table 1, listed as 6006). For the same molecule, the x-Fold in assay [1] (polyglutamine aggregation inhibitory activity, Table 1, listed as 6006) stood at 0.91; in assay [1] (setting [5]) it was 0.91.

Consider `CN(C)CCOB(c1ccc(F)c(Cl)c1)c1ccc(F)c(Cl)c1` [Example 78, 2-dimethylaminoethyl bis(3-chloro-4-fluorophenyl)borinate], for which the “TGase activity remaining (% of DMSO control = 100)” value in the assay with transglutaminase (TGase) (setting [2]) and with transglutaminase (TGase) (setting [3]) was 104 throughout. Moreover, the x-Fold in assay [1] (setting [4]) and in assay [1] (setting [5]) was 1.02 each time.

With `OB(c1ccc(Cl)cc1F)c1ccc(Cl)cc1F` [Example 79, bis(4-chloro-2-fluorophenyl)borinic acid], the “TGase activity remaining (% of DMSO control = 100)” value in the assay on transglutaminase (TGase) (setting [2]) and with transglutaminase (TGase) (setting [3]) was 97 in each case. Further, the x-Fold in assay [1] (setting [4]) and in assay [1] (setting [5]) was 0.88 in each case.

For `OB(c1ccc(F)c(F)c1)c1ccc(F)c(F)c1` [Example 80, bis(3,4-difluorophenyl)borinic acid], the “TGase activity remaining (% of DMSO control = 100)” value in the assay with transglutaminase (TGase) (setting [2]) and in the assay on transglutaminase (TGase) (setting [3]) was 93 in each case. The x-Fold in assay [1] (setting [4]) and in assay [1] (setting [5]) was 0.90 each time.

`OB(c1cc(F)c(F)c(F)c1)c1cc(F)c(F)c(F)c1` [Example 81, bis(3,4,5-trifluorophenyl)borinic acid]: the “TGase activity remaining (% of DMSO control = 100)” value in the assay with transglutaminase (TGase) (setting [2]) and in the assay with transglutaminase (TGase) (setting [3]) was 97 in each case. Besides, the x-Fold in assay [1] (setting [4]) and in assay [1] (setting [5]) was 0.92 each time.

Turning to `OB(c1ccc(Cl)c(F)c1)c1ccc(Cl)c(F)c1` [Example 83, bis(3-fluoro-4-chlorophenyl)borinic acid], the “TGase activity remaining (% of DMSO control = 100)” value in the assay on transglutaminase (TGase) (setting [2]) is on record as 101; in the assay with transglutaminase (TGase) (TGase inhibitory activity value, Table 1, listed as 6012), 101. The x-Fold in assay [1] (polyglutamine aggregation inhibitory activity, Table 1, listed as 6012) is given as 0.92; in assay [1] (setting [5]), 0.92.

On to `NCCOB(c1ccc(Cl)cc1F)c1ccc(Cl)cc1F` [Example 84, 2-aminoethyl bis(4-chloro-2-fluorophenyl)borinate], for which the “TGase activity remaining (% of DMSO control = 100)” value in the assay on transglutaminase (TGase) (setting [2]) and in the assay with transglutaminase (TGase) (setting [3]) was 91 throughout. Also, the x-Fold in assay [1] (setting [4]) and in assay [1] (setting [5]) was 0.92 each time.

Consider `NCCOB(c1ccc(F)c(Cl)c1)c1ccc(F)c(Cl)c1` [Example 86, 2-aminoethyl bis(3-chloro-4-fluorophenyl)borinate], for which the “TGase activity remaining (% of DMSO control = 100)” value turned out to be 103 in the assay with transglutaminase (TGase) (setting [2]) and 103 in the assay with transglutaminase (TGase) (TGase inhibitory activity value, Table 1, listed as 6015). For the same molecule, the x-Fold in assay [1] (polyglutamine aggregation inhibitory activity, Table 1, listed as 6015) was 0.99; in assay [1] (setting [5]) it was 0.99.

Take `NCCOB(c1ccc(F)c(F)c1)c1ccc(F)c(F)c1` [Example 87, 2-aminoethyl bis(3,4-difluorophenyl)borinate]: the “TGase activity remaining (% of DMSO control = 100)” value in the assay with transglutaminase (TGase) (setting [2]) and in the assay on transglutaminase (TGase) (setting [3]) was 91 in each case. For the same molecule, the x-Fold in assay [1] (setting [4]) and in assay [1] (setting [5]) was 1.02 each time.

Regarding `OB(c1ccccc1)c1cccc(COCc2ccccc2B(O)c2ccccc2)c1` [Example 124, (2-phenylhydroxyborylbenzyl)(3-(phenylhydroxyboryl)benzyl)ether], the x-Fold in assay [1] (polyglutamine aggregation inhibitory activity, Table 1, listed as 656) is 0.96; in assay [1] (setting [5]) it was 0.96.

Consider `FC(F)(F)c1ccc(C(OB(c2ccccc2)c2cc(B(OC(c3ccc(C(F)(F)F)cc3)c3ccccn3)c3ccccc3)cc(B(OC(c3ccc(C(F)(F)F)cc3)c3ccccn3)c3ccccc3)c2)c2ccccn2)cc1` (centres unmarked) [Example 132, 1,3,5-tri(2-pyridyl-4-trifluoromethylphenylmethoxyphenylboryl)benzene], for which the x-Fold in assay [1] (setting [4]) and in assay [1] (setting [5]) was 0.95 throughout.

As for `Cc1ccc(Cl)cc1B(OCCNCc1ccccc1)c1cc(Cl)ccc1C` [Example 164, di(3-chloro-6-methylphenyl)benzylaminoethylborinate], the x-Fold in assay [1] (setting [5]) is given as 0.67.

For the molecule `Cc1ccc(Cl)cc1B(OCCN)c1cc(Cl)ccc1C` [Example 166, di(3-chloro-6-methylphenyl)aminoethylborinate], the x-Fold in assay [1] (setting [5]) stood at 0.70.

On to `NCC(=O)OB(c1ccccc1)c1ccc(Oc2ccc(B(OC(=O)CN)c3ccccc3)cc2)cc1` [Example 169, di((phenylglycine-O,N boryl)phenyl)ether], for which the x-Fold in assay [1] (setting [5]) worked out at 0.78.

For the molecule `CN(C)CCOB(c1ccccc1)c1cccc(COCc2cccc(B(OCCN(C)C)c3ccccc3)c2)c1` [Example 172, bis(3,3′(phenyldimethylaminoethoxyboryl)benzyl)ether], the x-Fold in assay [1] (polyglutamine aggregation inhibitory activity, Table 1, listed as 2024) is recorded as 1.22; in assay [1] (setting [5]) it was 1.22.

In the case of `Cc1ccc(B(OCCN(C)C)c2ccc(C)c(Cl)c2)cc1Cl` [Example 207, di(3-chloro-4-methylphenyl)dimethylaminoethylborinate], the x-Fold in assay [1] (setting [4]) and in assay [1] (setting [5]) was 0.91 each time.

For `Cc1ccc(B(OCC(N)Cc2ccccc2)c2ccc(C)c(Cl)c2)cc1Cl` (centres unmarked) [Example 208, di(3-chloro-4-methylphenyl)-2-benzyl-2-aminoethylborinate], the x-Fold in assay [1] (setting [4]) and in assay [1] (setting [5]) was 0.67 in each case.

In the case of `NC(COB(c1ccccc1)c1ccccc1)Cc1ccccc1` [Example 212, diphenyl(R) 2-benzyl-2-aminoethyl borinate], the x-Fold in assay [1] (polyglutamine aggregation inhibitory activity, Table 1, listed as 3073) came to 0.75; in assay [1] (setting [5]) it was 0.75.

With `NC(COB(c1ccccc1)c1ccccc1)Cc1ccccc1` [Example 213, diphenyl(S) 2-benzyl-2-aminoethyl borinate], the x-Fold in assay [1] (polyglutamine aggregation inhibitory activity, Table 1, listed as 3075) came to 1.00; in assay [1] (setting [5]) it was 1.00.

`OB(c1ccc(C(F)(F)F)cc1)c1ccc(C(F)(F)F)cc1` [Example 230, di(trifluoromethylphenyl)borinic acid]: the x-Fold in assay [1] (polyglutamine aggregation inhibitory activity, Table 1, listed as 4138) is 1.03; in assay [1] (setting [5]), 1.03.

With `OB(c1cccs1)c1cccs1` [Example 253], the x-Fold in assay [1] (setting [5]) was 1.11.

Take `OB(O)c1cccc2ccccc12` [Example 324, naphthaleneboronic acid]: the x-Fold in assay [1] (setting [4]) and in assay [1] (setting [5]) was 0.76 each time.

Turning to `NCCOB(c1ccccc1)c1cccc(COCCc2ccccc2B(OCCN)c2ccccc2)c1` [Example 369], the x-Fold in assay [1] (setting [4]) and in assay [1] (setting [5]) was 1.10 each time.

As to `NCCOB(c1ccc(Oc2ccccc2)cc1)c1ccc(Oc2ccc(B(OCCN)c3ccc(Oc4ccccc4)cc3)cc2)cc1` [Example 398, bis(4,4′-(phenoxyphenyl-aminoethoxyboryl)phenyl)ether], the x-Fold in assay [1] (polyglutamine aggregation, Truncated N-terminal huntington 150 Q-EGFP-Neuron 2a cells) turned out to be 0.88; in assay [1] (setting [5]) it was 0.88.

With `Cc1ccc(B(OC(=O)C(N)CC(N)=O)c2ccc(C)c(Cl)c2)cc1Cl` (centres unmarked) [Example 448], in assay [1] (setting [5]), the x-Fold was determined as 0.95.
